Data from patent US11230526B1, “Cylcoalkenyl derivatives useful as agonists of the GPR120 and/or GPR40 receptors” (Janssen Pharmaceutica NV, priority 2018, dated 2022).

Assays:
[1] = target: T1, short form of the GPR120 receptor (Homo sapiens, UniProt Q5NUL3); assay: Human GPR120 DiscoveRx PathHunter Beta-Arrestin assay, Procedure β-arrestin B; assay type: cell-based
T1 construct: host or cells: PathHunter CHO-K1 GPR120S β-Arrestin Cell Line

[2] = system: C57B16 mice on a high fat diet; assay: GPR120 DIO mice OGTT screening; assay type: in vivo, mouse; settings: 10 mg/kg, DIO mice (60% HFD), glucose AUC −30 to 90 min, % change from vehicle
Method: GPR120 DIO Mice OGTT Screening
18-22 week old, C57B16 mice on a high fat diet (60% HFD) for 12-16 weeks (ave. body weight ˜ 37-41 g) were fasted for 6 hr, with removal of food occurring at 7 am on the morning of the study. The animals were sorted into treatment groups the day before the study by body weight. Animals outside the bounds of ˜30-50 g were left out of the study. The animals had been handled and shammed a total of 5-8 days (1-3 days immediately prior to the study). Glucose (in 1 mL syringes) was drawn up the morning of the study. Test compounds were kept spinning and were only drawn into 1 ml syringes prior to study commencement. Animals were bled via tail snip to determine basal glucose levels prior to dosing of treatments. An Ascensia BREEZE Blood Glucose Monitoring System by Bayer was used for determining glucose levels.
Animals were moved into the testing room at ˜9-11 am, to yield them time to acclimate. The bleeds and dosing started at approximately 1 pm in 30-second intervals per animal. All groups were dosed 30 minutes prior to glucose administration at a dose volume of 10 ml/kg (the dose volume was calculated separately for each individual animal). Test compounds were administered at one or more of the following dosages: 0.1 mg/kg, 0.3 mg/kg, 1 mg/kg, 3 mg/kg and 10 mg/kg.
Thirty minutes after the first dose (with test compound) animals were bled again for a second baseline, or T=0, and immediately dosed with glucose (20% solution, TEKNOVA, 250 ml sterile bottle w/catalogue number G0525) via a PO injection. The exact dose volume for glucose was also calculated separately for each individual animal.
Blood glucose was measured at 15, 30, 45, 60, and 90 minutes post-glucose administration via the snipped tail. If an animal reached a value of “HI”, the upper limit of the glucometer (600 mg/dl) was substituted as the blood glucose value and the study was analyzed as normal with no exclusions. If 50% or more of any treatment group reaches a “HI” value at least once, the study was considered invalid and repeated. Glucose values were typed into an EXCEL spreadsheet where they were used to calculate glucose AUC and delta AUC post-compound and post-glucose. The glucose excursion curves and the different versions of the AUC's were graphed in GraphPad Prism 5.
Note: All statistics completed in this study were completed using the statistical software package GraphPad Prism 5. Standard procedures for analyzing data sets from screening GPR120 compounds in DIO mouse OGTT's were as listed here below. In addition to the statistics that were run using GraphPad Prism 5, Microsoft Excel was used to calculate the percent changes in AUC from vehicle groups as detailed below.
Change from −30 to 0 Baseline Glucose, Raw Glucose AUC −30 to 90 min, Delta Glucose AUC −30 to 90 min, Raw Glucose AUC 0 to 90 min, Delta Glucose AUC 0 to 90 min were analyzed using Column Statistics Analysis, with mean values used to calculate % change from the vehicle mean group, as well as mean, SEM and/or % change from vehicle, where appropriate, and using One-Way ANOVA w/a Tukey Post-Test (Comparing All Pairs of Columns) with each treatment group examined to see if it was statistically significant compared to vehicle (*=P<0.05, **=P<0.01, ***=P<0.001).

T1 sequence (Q5NUL3 whole entry): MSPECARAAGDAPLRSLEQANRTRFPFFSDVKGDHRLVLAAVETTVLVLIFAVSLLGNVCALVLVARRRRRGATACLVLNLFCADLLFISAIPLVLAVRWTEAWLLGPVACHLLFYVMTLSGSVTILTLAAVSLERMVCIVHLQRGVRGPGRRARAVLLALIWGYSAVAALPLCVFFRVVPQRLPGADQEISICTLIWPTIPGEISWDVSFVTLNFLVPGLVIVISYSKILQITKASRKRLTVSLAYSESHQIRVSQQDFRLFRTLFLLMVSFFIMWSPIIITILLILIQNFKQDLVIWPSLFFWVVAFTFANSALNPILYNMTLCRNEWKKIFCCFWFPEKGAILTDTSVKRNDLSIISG
T1 sequence (P32121 whole entry partner): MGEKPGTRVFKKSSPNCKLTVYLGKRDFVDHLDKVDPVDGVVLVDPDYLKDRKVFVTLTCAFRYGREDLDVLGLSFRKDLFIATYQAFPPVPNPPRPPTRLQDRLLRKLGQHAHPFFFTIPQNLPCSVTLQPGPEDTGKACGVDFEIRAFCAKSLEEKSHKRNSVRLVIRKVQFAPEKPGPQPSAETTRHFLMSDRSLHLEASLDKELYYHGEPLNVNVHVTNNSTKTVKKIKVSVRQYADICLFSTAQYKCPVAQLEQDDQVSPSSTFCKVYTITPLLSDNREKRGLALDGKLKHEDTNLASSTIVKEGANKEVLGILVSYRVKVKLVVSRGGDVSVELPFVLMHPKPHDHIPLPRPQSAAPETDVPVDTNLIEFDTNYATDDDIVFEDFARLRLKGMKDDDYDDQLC

EC50 [1] [µM] | SMILES | DIO Lowering (−30 to 90) [2] [%]
0.244 | Cc1c(CCC(=O)O)ccc(OCC2=C(c3ccc(Cl)cc3)CCC(F)(F)C2)c1C [Compound 468, 3-[4-[[2-(4-chlorophenyl)-5,5-difluoro-cyclohexen-1-yl]methoxy]-2,3-dimethyl-phenyl]Propanoic Acid] | −85
0.047 | Cc1ccc(C2=C(COc3ccc(CCC(=O)O)c(F)c3F)CCC2)cc1 [Compound 94, 3-(2,3-difluoro-4-((2-(p-tolyl)cyclopent-1-en-1-yl)methoxy)phenyl)Propanoic Acid] | −11
0.063 | Cc1ccc(C2=C(COc3ccc(CCC(=O)O)c(C)c3C)CCC2)cc1 [Compound 52, 3-[2,3-dimethyl-4-[[2-(p-tolyl)cyclopenten-1-yl]methoxy]phenyl]Propanoic Acid] | −86
